{
  "source": "patent US8697376B2",
  "about": "“Synthetic protease substrates, assay methods using such substrates and kits for practicing the assay” (Lifesensors, INc., priority 2010, dated 2014)",
  "system": "DUBs immobilized on a Nexterion slide H",
  "test": "Microarray-based assay: cleavage and label transfer to immobilized DUBs",
  "format": "biochemical",
  "conditions": "35 DUBs arrayed as triplicate spots; FIG. 5",
  "description": "Since one of the primary uses for the substrates of the invention is localization of active deubiquitylases immobilized in a microarray-type format, i.e. solid phase assay, each of the substrates was tested for its ability to be cleaved and subsequently transfer label to DUBs immobilized on a Nexterion slide H (Schott). Thirty-five (35) DUBs were arrayed as a series of triplicate spots on the slide (see Table 6 for a map of the array) Three identical arrays were constructed on each slide. Several features that were common amongst each array on a given slide and between slides are shown boxed in red and numbered 1-7. […] It should be noted that the enzymes (and antibodies) were coupled 1) at different concentrations and 2) by covalent attachment through surface exposed lysines.",
  "data": [
    {"substance": "ubiquitin-vinylsulfone", "values": [
      {"measurement": "immobilized enzymes labeled (positive features) on the microarray", "result": "all of the immobilized proteins were labeled"}
    ]}
  ]
}
